Data published in PubChem BioAssay AID1159560 (GlaxoSmithKline (GSK), 2015).
Active and inactive are the calls of the source. How the calls were made is not given here.

tested on: Leishmania donovani growth inhibition; assay: antileishmanial activity against L. donovani parasites (AID 1159560);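 further: parasites exposed to compound for 72 h before the viability read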

Compound	IC50
CNc1nc(C)nc(N2CCc3cc(C(=O)NCc4ccc(-c5ccn[nH]5)cc4Cl)ccc32)n1	2.5 µM
CN(Cc1nnnn1C1CCN(Cc2ccc(-n3ccnc3)cc2)CC1)c1ccc(F)cc1F	> 50 µM (inactive)
O=C(Nc1ccc(Br)c(Cl)c1)Nc1ccc2c(c1)OCO2	> 50 µM (inactive)
COc1ccc2c(Cl)c(C(=O)N3CCC3)sc2c1Cl	> 50 µM (inactive)
COc1ccc(NC(=O)c2ccc(NC(=O)CN(c3ccccc3C)S(C)(=O)=O)cc2)cc1	> 50 µM (inactive)
CC(=O)Nc1ccc(Nc2nccc(-c3cnn4ncccc34)n2)cc1C(F)(F)F	0.2 µM
Cc1ccc2nc(N(Cc3cccnc3)C(=O)CCc3ccccc3)sc2c1	25 µM
CCCn1c(NC(=O)CCn2cc(Br)cn2)nc2ccccc21	10 µM
CC1=C(C(=O)Nc2ccc(Cl)cc2)C(c2ccncc2)n2ncc(C(=O)Nc3ccccc3)c2N1 (stereo unspecified)	0.13 µM
O=C1CSC(c2cccnc2)N1c1ccc(Cl)cc1Cl (stereo unspecified)	5 µM
Cc1cccnc1NC(=O)c1cccc(OCc2c(C)noc2C)c1	> 50 µM (inactive)
CC(c1ccc2c(c1)CCCC2)N(C)c1ncc2c(N)nc(N)nc2n1 (stereo unspecified)	2.5 µM
CN(Cc1ccccc1)Cc1nnnn1C1CCN(Cc2ccc(-n3ccnc3)cc2)CC1	> 50 µM (inactive)
CCOc1ccc(N(C)S(=O)(=O)c2ccc3[nH]cc(C(=O)NC4CCCC4)c(=O)c3c2)cc1	> 50 µM (inactive)
NC(=O)c1ccsc1NC(=O)c1ccc([N+](=O)[O-])s1	0.32 µM
CCc1ccc2nc(NC(=O)c3cc(N4CCOCC4)ccn3)sc2c1	2 µM
Cc1cc(NC(=O)C2CC2)ccc1OC1CCN(Cc2ccco2)CC1	> 50 µM (inactive)
CS(=O)(=O)NC1CCC(Oc2cc3cnccc3cc2-c2ccsc2)CC1 (stereo unspecified)	32 µM
Cn1cncc1CN1CCC2(CC1)COC(Cc1ccccc1)C2 (stereo unspecified)	13 µM
COc1ccc(C(C)(C)C)cc1S(=O)(=O)n1ccnc1	40 µM
O=C(CCCn1cnc([N+](=O)[O-])n1)Nc1cccc(Cl)c1	> 50 µM (inactive)
CCc1nn(-c2ncc(F)c(NC(C)C)n2)c(N)c1C1CCCCC1	3.2 µM

Compound	IC50
Cc1ccc(Nc2nc(C3CCCN3Cc3ccn[nH]3)cs2)nc1 (stereo unspecified)	13 µM
O=C(CSc1nnc2ccc(-c3ccc(F)cc3)nn12)N1CCCCC1	> 50 µM (inactive)
CN(Cc1cc2ccccc2s1)c1ncc2c(N)nc(N)nc2n1	32 µM
OCCCNc1nc(Nc2ccncc2)nc2ccccc12	40 µM
Cc1cc(Oc2cc(Cl)c(Cl)cc2Cl)n2ncnc2n1	16 µM
O=C(c1ccc(Cl)cc1)c1ccc(OC(=O)N2CCOCC2)cc1	6.3 µM
CCCN(Cc1ccc(OC)c(OC)c1)Cc1cc(=O)c2c(C)cc(C)cc2[nH]1	20 µM
CCc1cccc(CC)c1-n1c(SCC(=O)NC(=O)NCc2ccco2)nnc1-c1cccnc1	> 50 µM (inactive)
C[C@@H](Oc1cc(-n2cnc3ccc(CC(O)CO)cc32)sc1C(N)=O)c1ccccc1Cl (stereo partly specified)	25 µM
Cc1c(C#N)c([N+](=O)[O-])nn1Cc1cccc(Cl)c1Cl	> 50 µM (inactive)
COC(=O)c1ccc(-c2cnc3ccc(NCc4ccccn4)nn23)cc1	13 µM
COc1ccc(-c2csc(NC(=O)c3ccc([N+](=O)[O-])s3)n2)cc1OC	1 µM
O=C(Nc1nc(-c2ccccn2)cs1)N1C[C@H]2C[C@@]2(c2ccccc2)C1	2 µM
COc1ccc(-c2nc3ccncc3c(=O)n2CCOc2ccccc2)cc1	40 µM
Cc1nn(-c2ccccc2)nc1CNC(=O)CN(Cc1ccccn1)Cc1ccccn1	7.9 µM
COc1ccc(C(=O)Nc2cc(C(F)(F)F)ccc2N2CCOCC2)c(OC)c1	5 µM
CNC(=O)C1Cc2ccccc2N1C(=O)Cc1ccc(OC)cc1 (stereo unspecified)	> 50 µM (inactive)
O=[N+]([O-])c1cccc(Nc2cncc(-c3ccccc3CO)c2)c1	40 µM
C=CCOCC1Cn2nc([N+](=O)[O-])nc2O1 (stereo unspecified)	> 50 µM (inactive)
O=C(Nc1nc(-c2ccccn2)cs1)c1ccccc1-n1cnnn1	3.2 µM
N#Cc1cccc(CN2CCC(c3nc(-c4ccc(C(F)(F)F)nc4)no3)CC2)c1	13 µM
CC(c1ccccn1)N(C)Cc1nc2ccccc2n1C(C)C (stereo unspecified)	10 µM

Compound	IC50
COc1cnc2ccc(=O)n(CCN3CCC(NC(=O)Cc4ccc(Cl)c(Cl)c4)CC3)c2c1	5 µM
CC(=O)Nc1nc(-c2cc(C)ccc2C)c(C)s1	> 50 µM (inactive)
O=C(NCCc1csc(-c2cccc(F)c2)n1)c1ccco1	> 50 µM (inactive)
CC(C)(C)Nc1nc(Nc2ccc3c(c2)CS(=O)(=O)C3)nc2[nH]ccc12	7.9 µM
COc1ccc(NS(=O)(=O)c2ccc(S(=O)(=O)N(C)C3CCCCC3)cc2)c2ncccc12	> 50 µM (inactive)
NCc1ccc2c(Cl)cc(Cl)c(O)c2n1	6.3 µM
O=C1NCc2cccc(Nc3nc(NC4CCC(O)CC4)ncc3Br)c21 (stereo unspecified)	0.79 µM
COc1ccc(Nc2nc(-c3ccccn3)cs2)c(OC)c1	6.3 µM
O=C(CN(c1cccc(C(F)(F)F)c1)S(=O)(=O)c1ccc(Cl)cc1)NCc1ccc(F)c(F)c1	> 50 µM (inactive)
CN(C)S(=O)(=O)c1cccc(CSc2nnc(-c3ccc4c(c3)OCO4)o2)c1	1 µM
O=C(CN1CCN(c2ccccn2)CC1)Nc1cc(S(=O)(=O)N2CCCCCC2)ccc1Cl	7.9 µM
O=C(COc1ccccc1)Nc1ccccc1C(=O)Nc1nccs1	> 50 µM (inactive)
NC(=O)c1ccccc1Nc1nc(NC2CCCCC2)nc2[nH]ccc12	20 µM
Cc1cccc(N2CCCN(Cc3c[nH]c4ccccc34)CC2)n1	> 50 µM (inactive)
CC(Cn1ccnc1)NC(=O)C=Cc1ccc(Cl)cc1 (stereo unspecified)	> 50 µM (inactive)
COc1ccccc1C(=O)Nc1nnc(-c2ccc3c(c2)OCO3)s1	1 µM
COCc1cc(Nc2cccc(Cl)c2)nc(-c2ccccn2)n1	2.5 µM
N#Cc1cc(-c2ccnc(Nc3cccc(CN4CCOCC4)c3)n2)ccc1NCCN	4 µM
Cc1c(Nc2cc(C3CC3)[nH]n2)ccc(C#N)c1Cl	20 µM
COc1cc(NC(=O)Nc2cccc(CNC(=O)OC3CCCCC3)c2)ccc1-c1cnco1	> 50 µM (inactive)
CNc1cc(C)nc(C2CN(C(=O)c3n[nH]c4ccccc34)CCO2)c1 (stereo unspecified)	> 50 µM (inactive)
CC(C)CC(=O)NC(c1cccs1)c1ccc2cccnc2c1O (stereo unspecified)	6.3 µM

Compound	IC50
COc1ncc(-c2ccc3nccc(-c4ccncc4)c3c2)cc1NS(=O)(=O)C1CC1	1.3 µM
O=C(NC(c1ccc(Cl)cc1)c1cnccn1)C1CCN(C(=O)Nc2cccc(C(F)(F)F)c2)CC1 (stereo unspecified)	20 µM
Cc1ccccc1NS(=O)(=O)c1ccc2[nH]cc(C(=O)NC3CCCC(C)C3C)c(=O)c2c1 (stereo unspecified)	25 µM
COc1cccc(C(=O)[C@H]2C[C@@H]2CN(Cc2ccccn2)Cc2ccccn2)c1	7.9 µM
COc1cc(C2SCC(=O)Nc3c2c(C)nn3-c2nc3ccccc3s2)cc(OC)c1O (stereo unspecified)	6.3 µM
CCS(=O)(=O)c1cccc(C(=O)Nc2nc(-c3ccccn3)cs2)c1	1.3 µM
CN(C)c1ccc(-c2cc3nccnc3c(OC[C@H]3CCCNC3)n2)cn1	> 50 µM (inactive)
O=[N+]([O-])c1ccc(-c2nnn(-c3cccnc3)n2)o1	16 µM
O=C(Cn1cnc([N+](=O)[O-])n1)Nc1ccc(Cl)cc1C(=O)c1ccccc1	> 50 µM (inactive)
Cc1[nH]nc(-c2nc3ccccc3[nH]2)c1C(=O)NC1CCCNC1 (stereo unspecified)	10 µM
Cc1nnnn1-c1cccc(C(=O)N2CCC[C@@]3(C)c4ncncc4CCC23)c1 (stereo partly specified)	0.4 µM
O=C(NCc1ccc(Cl)cc1)C1CN(C(=O)c2ccc(F)cc2)CCS1 (stereo unspecified)	> 50 µM (inactive)
O=C(c1cccc(Nc2ncc(-c3ccc4c(c3)OCO4)cn2)c1)N1CCOCC1	2 µM
Cc1ccc(C)c(CN2C(=O)NC3(CCc4ccccc43)C2=O)c1 (stereo unspecified)	> 50 µM (inactive)
O=C(NCc1ccncc1)c1ccccc1N1CCCN(C(=O)Cc2ccc(F)c(F)c2)CC1	2.5 µM
Fc1ccc(OC2CC(NCc3cccc4cn[nH]c34)C2)cc1C(F)(F)F (stereo unspecified)	20 µM
O=C(Cc1ccc2c(c1)CCC2)Nc1n[nH]c(-c2ccccn2)n1	7.9 µM
CC(=O)Nc1ccc(-c2csc(NC(=O)c3ccc([N+](=O)[O-])s3)n2)cc1	0.4 µM
Clc1ccc(OCCN2CCCCC2c2cccnc2)c(Cl)c1 (stereo unspecified)	5 µM
CC(C)C[C@H](NC(=O)c1ccc(-c2ccccc2)o1)C(=O)NC1(C#N)CC1	> 50 µM (inactive)
C=CCN(Cc1cccs1)C(=O)CSc1nnc(-c2ccc3c(c2)OCO3)o1	6.3 µM
CN(Cc1nc2ccccc2s1)C(=O)C=Cc1cc2ccccc2o1	50 µM

Compound	IC50
CC(C)S(=O)(=O)c1ccc(-c2cnc(N)c3cc(-c4ccnc(N)n4)ccc23)cc1	2 µM
Cc1ccccc1OCC(=O)N1CCCN(c2cccnn2)CC1	13 µM
CCN(Cc1nc2ccc(C(=O)N3CCN(c4ncccn4)CC3)cc2[nH]1)C1CCCc2cccnc21 (stereo unspecified)	5 µM
CN(CC1CCCO1)S(=O)(=O)c1ccc(C(=O)Nc2nc(-c3ccccn3)cs2)cc1 (stereo unspecified)	1.3 µM
CC(C(=O)Nc1ccc(Br)cc1)N1CCN(c2ccc([N+](=O)[O-])cc2)CC1 (stereo unspecified)	> 50 µM (inactive)
O=C(NCCc1nc(-c2ccc(F)c(F)c2)n[nH]1)C1CCCCC1	> 50 µM (inactive)
CCc1ccccc1[C@@H](C)NC(=O)c1cnc2c(cnn2CC)c1NC1CCN(C(N)=O)CC1	> 50 µM (inactive)
O=C(Cc1ccccc1)Nc1[nH]nc2sc(C(=O)NC3CCCC3)cc12	4 µM
N#Cc1ccc(S(=O)(=O)N2CCC3(CCN(c4ccccc4)C3=O)CC2)cc1	> 50 µM (inactive)
COCc1cc(Nc2ccccc2)nc(-c2ccccn2)n1	7.9 µM
COc1ccc(-c2cnc(NC(=O)c3ccc(F)cc3)n2C)cc1	3.2 µM
COc1ccccc1C1CC(c2ccc(NS(C)(=O)=O)cc2)=NN1C(=O)c1cccs1 (stereo unspecified)	4 µM
CC(C)(C)c1cc(NC2CC2)nc(-c2ccccn2)n1	1.6 µM
CNc1c(C(N)=O)c(-c2ccc3scnc3c2)nn1CC(F)(F)F	> 50 µM (inactive)
O=c1ccc2ccc(F)c3c2n1C[C@H]3CN1CCC(NCc2cc3ccccc3o2)CC1	16 µM
CS(=O)(=O)c1ccc(CC(=O)Nc2nc(-c3ccc(Cl)s3)cs2)cc1	> 50 µM (inactive)
O=C(Nc1nc(-c2ccccn2)cs1)C1CCc2ccccc2C1 (stereo unspecified)	5 µM
COc1ccc(-c2cc(C)no2)cc1S(=O)(=O)Nc1ccc(F)c(Cl)c1	25 µM
